From US12569534B2, “Therapeutic nanoparticles by coacervate complexation and their use for treating bacteria” (priority 2018, dated 2026)
{Cy5} = Cy5 fluorescent dye; d = 2'-deoxy (DNA); m = 2'-O-methyl

Tested on: E. Coli ATCC 25922
Assay: MIC and MBC of different treatments, Example 3
Format: cell-based
Method: Reference bacterial stains were purchased from ATCC. Clinical isolates of carbapenem-resistant bacteria were obtained from National Health Research Institutes (NHRI) and Tri-Service General Hospital (TSGH). MIC is defined as the lowest concentration of antibiotics required to inhibit the growth of bacteria. MBC is defined as the lowest concentration of antibiotics required to eradicate microorganisms. The MICs of CS and the CS NPs were determined using a broth microdilution method. Bacterial suspensions were adjusted to a turbidity of McFarland 0.5±0.05 and cultured overnight with different concentrations of CS or CS NPs. A control group without antimicrobial treatment was prepared as a reference. Following overnight incubation, solution turbidity was determined by visual inspection. Culture wells with no observable turbidity were further sub-cultured for MBC evaluation. Solutions from the clear wells were deposited onto an agar plate and cultured overnight to determine the MBCs.

“ASOftsZ: antisense oligonucleotide of ftsZ DNA fragment; Cy5-mCmCmAmU-TG-GTT-CAA-A-mCmAmUmA, m_: 2′ O-methyl bases (antisense CCAUTGGTTCAAACAUA; sugars from the 5' end m4 d9 m4, 5' {Cy5}, backbone and methylation of C not given here)” gave an MBC greater than 2 µg/mL and an MIC greater than 2 µg/mL.
